Data as given in patent US20230113747A1, “IMMUNOGENIC PEPTIDES WITH AN OXIDOREDUCTASE MOTIF COMPRISING A MODIFIED CYSTEINE” (priority 2019, published 2023).
Ends that are not written are not given here.

System: two peptides with a FITC label covalently attached to each other via a disulfide bridge
Assay: Reductase activity of the peptides, fluorescent assay (Tomazzolli et al.)
Type: biochemical
Details: not given

Substance | oxidoreductase activity
N-Acetyl-CPYCVQYIKANSKFIGITEL [Peptide 7] | higher oxidoreductase activity than the control peptide

Same assay, conditions: compared with the control peptide without modified cysteine; DTT = 100% reducing activity, water = 0%

Substance | oxidoreductase activity
GW YRSPFSRVV HLYR CPY-C—NH-ethyl (GWYRSPFSRVVHLYRCPYC-NHEt; cysteine pairing not given here) [Peptide 30] | slightly higher oxidoreductase activity than the control peptide
GWYRSPFSRVVHLYRCPYC-NH-methyl (GWYRSPFSRVVHLYRCPYC-NHMe; cysteine pairing not given here) [Peptide 29] | slightly higher oxidoreductase activity than the control peptide
N-Acetyl-CPYCSLQPLALEGSLQKRG (Ac-CPYCSLQPLALEGSLQKRG; not fully specified (C-terminus); printed as N-Acetyl-CPYCSLQPLALEGSLQKRG; cysteine pairing not given here) [Peptide 2] | higher oxidoreductase activity than the control peptide
N-acetyl C-HGC GW YRSPFSRVV HLYR —NH2 [Peptide 27] | higher activity than the control peptide
N-acetyl C-PYC GW YRSPFSRVV HLYR —NH2 [Peptide 22] | higher oxidoreductase activity than the control peptide
N-ethyl C-PYC GW YRSPFSRVV HLYR —NH2 [Peptide 24] | no oxidoreductase activity
N-methyl C-PYC GW YRSPFSRVV HLYR —NH2 [Peptide 23] | equivalent activity as compared to the control peptide
N-propionyl C-PYC GW YRSPFSRVV HLYR —NH2 [Peptide 25] | higher oxidoreductase activity than the control peptide
